These results are taken from patent US7691382B2, “Antiviral polypeptides comprising tandem repeats of APOE 141-149 and variants thereof” (priority 2003, dated 2010).

Peptide text beside a SMILES is read from it.

In the first experiment the test system is HSV1. It is filed as cell-based, Human herpes simplex virus type 1.
Conditions: not given
How it is done:
African Green Monkey Kidney (Vero) cells were maintained in Eagle's minimum essential medium with Earle's salt (EMEM) and supplemented with 10% foetal calf serum (heat-inactivated), 4 mM L-glutamine, and 1% (v/v) nonessential amino acids, plus penicillin and streptomycin (100 IU/mg and […], respectively) (maintenance medium referred to as 10% EMEM). The cells were incubated at 37° C. in a humidified atmosphere of air with 5% CO2.
On harvesting, monolayers were washed in phosphate-buffered saline (PBS), and dislodged by incubating with trypsin in PBS for 30 min, before inactivating trypsin by addition of an equal volume of 10% EMEM and centrifuging at 500 g (5 min, 4° C.). Cell pellets were resuspended in 10% EMEM, prior to cell counting and seeding of 24-well plates. For antiviral assays, medium containing only 0.5% FCS was used (referred to as 0.5% EMEM).
Three separate passages of HSV1 virus were prepared by infecting Vero cells, and preparing semi-pure suspensions of virus from tissue culture supernatant and cell lysates, before freezing aliquots of virus at −85° C. Viral infectivity was assessed by carrying out plaque assays on serial dilutions of thawed aliquots (expressed in pfu/ml).
Peptides were obtained in lyophilised form from a commercial supplier (AltaBioscience, University of Birmingham or Advanced Biomedical), and were produced at 5 micromole scale. N-terminals were protected by addition of an acetyl group, and the C-terminals were protected by addition of an amide group.
Small quantities of peptide were weighed in sterile Eppendorf tubes, before addition of sufficient 0.5% EMEM to produce a 1.5 mM stock solution, which was frozen at −20° C. in aliquots.
Vero cells were seeded at 125,000 cells per well in 10% EMEM, and were incubated overnight resulting in confluent monolayers. […] Virus stocks (p3) were thawed, and diluted in 0.5% EMEM such that there were around 100 pfu in 100 μl. Each 24-well plate was inoculated separately. Firstly 100 μl of virus stock was added to the peptide or control medium arranged on a 96-well plate. This was incubated at 37° C. for ten minutes before inoculation. Medium was removed from four wells of a 24-well plate containing confluent Vero, and the 200 μl inoculum added to the appropriate well. Once all wells were treated, the 24-well plate was incubated for a further 60-80 minutes. Finally the peptide-containing inoculum was removed, and 1 ml of 1% EMEM containing 1% carboxymethylcellulose was added to each well. Plates were incubated for a further 22 hours or in some experiments 40 hours, before removal of overlay, and addition of 10% formaldehyde in PBS. After a further one hour incubation, fixative was removed, monolayers washed several times with tap water, and stained with carbol fuchsin solubilised in water. After 30 minutes stain was removed, and plates washed several times with tap water, before being air dried. Plaques were counted using an Olympus IX70 Inverting Microscope, and antiviral effect expressed as a percentage of the control value for each peptide concentration. The IC50 was calculated from plots of inhibitory effect against peptide concentration.
As to `CSCC[C@H](NC(=O)[C@H](CCC(=O)O)NC(=O)[C@H](CCC(=O)O)NC(=O)[C@H](CCSC)NC(=O)[C@H](CCCNC(=N)N)NC(=O)[C@H](C)NC(=O)[C@H](CCCNC(=N)N)NC(=O)[C@H](CC(C)C)NC(=O)[C@H](CCCNC(=N)N)NC(=O)[C@H](CCSC)NC(=O)[C@H](CCC(=O)O)NC(=O)[C@H](CCC(=O)O)NC(=O)[C@H](CCSC)NC(=O)[C@H](CCCNC(=N)N)NC(=O)[C@H](C)NC(=O)[C@H](CCCNC(=N)N)NC(=O)[C@H](CC(C)C)NC(=O)[C@H](CCCNC(=N)N)NC(C)=O)C(N)=O` [GIN 15] (Ac-RLRARMEEMRLRARMEEM-NH2), the concentration for half-maximal inhibition (IC50) is > 40 µM.

Turning to `CC[C@H](C)[C@H](NC(=O)[C@H](CO)NC(=O)[C@H](CO)NC(=O)[C@H](C)NC(=O)[C@H](CCCNC(=N)N)NC(=O)[C@H](CO)NC(=O)[C@H](Cc1ccccc1)NC(=O)[C@H](Cc1c[nH]cn1)NC(=O)[C@H](CC(=O)O)NC(=O)[C@H](CCC(N)=O)NC(=O)[C@H](CCSC)NC(=O)[C@@H](NC(=O)[C@H](CC(=O)O)NC(=O)[C@H](CC(C)C)NC(=O)[C@H](CCSC)NC(=O)[C@H](Cc1c[nH]cn1)NC(C)=O)C(C)C)C(=O)N[C@H](C(=O)N[C@@H](CC(=O)O)C(=O)N[C@@H](CCC(=O)O)C(=O)N[C@@H](CC(C)C)C(N)=O)[C@@H](C)CC` [GIN 29] (Ac-HMLDVMQDHFSRASSIIDEL-NH2), the IC50 stood at 38.5 µM. Still for that read-out and setting: in the case of `CSCC[C@H](NC(=O)[C@H](CCSC)NC(=O)[C@H](CCCNC(=N)N)NC(=O)[C@H](CCCCN)NC(=O)[C@H](CCCNC(=N)N)NC(=O)[C@H](CCSC)NC(=O)[C@H](CCCCN)NC(=O)[C@H](CCCNC(=N)N)NC(=O)[C@H](CCSC)NC(=O)[C@H](CCSC)NC(=O)[C@H](CCSC)NC(=O)[C@H](CCCNC(=N)N)NC(=O)[C@H](CCCCN)NC(=O)[C@H](CCCNC(=N)N)NC(=O)[C@H](CCSC)NC(=O)[C@H](CCCCN)NC(=O)[C@H](CCCNC(=N)N)NC(=O)[C@H](CCSC)NC(C)=O)C(N)=O` [GIN 40] (Ac-MRKMRKRMMMRKMRKRMM-NH2) it was > 30 µM; in that of `CC(=O)N[C@@H](CC(C)C)C(=O)N[C@@H](CCCNC(=N)N)C(=O)N[C@@H](CCC(N)=O)C(=O)N[C@@H](CC(C)C)C(=O)N[C@@H](CCCNC(=N)N)C(=O)N[C@@H](CCC(N)=O)C(=O)N[C@@H](CCCNC(=N)N)C(=O)N[C@@H](CC(C)C)C(=O)N[C@@H](CC(C)C)C(=O)N[C@@H](CC(C)C)C(=O)N[C@@H](CCCNC(=N)N)C(=O)N[C@@H](CCC(N)=O)C(=O)N[C@@H](CC(C)C)C(=O)N[C@@H](CCCNC(=N)N)C(=O)N[C@@H](CCC(N)=O)C(=O)N[C@@H](CCCNC(=N)N)C(=O)N[C@@H](CC(C)C)C(=O)N[C@@H](CC(C)C)C(N)=O` [GIN 44] (Ac-LRQLRQRLLLRQLRQRLL-NH2), 40 µM. As for `CC(=O)N[C@@H](Cc1ccccc1)C(=O)N[C@@H](CCCNC(=N)N)C(=O)N[C@@H](CCCCN)C(=O)N[C@@H](Cc1ccccc1)C(=O)N[C@@H](CCCNC(=N)N)C(=O)N[C@@H](CCCCN)C(=O)N[C@@H](CCCNC(=N)N)C(=O)N[C@@H](Cc1ccccc1)C(=O)N[C@@H](Cc1ccccc1)C(=O)N[C@@H](Cc1ccccc1)C(=O)N[C@@H](CCCNC(=N)N)C(=O)N[C@@H](CCCCN)C(=O)N[C@@H](Cc1ccccc1)C(=O)N[C@@H](CCCNC(=N)N)C(=O)N[C@@H](CCCCN)C(=O)N[C@@H](CCCNC(=N)N)C(=O)N[C@@H](Cc1ccccc1)C(=O)N[C@@H](Cc1ccccc1)C(N)=O` [MU 7] (Ac-FRKFRKRFFFRKFRKRFF-NH2), the IC50 was > 30 µM.

For `CC[C@H](C)[C@H](NC(=O)[C@@H](NC(=O)[C@H](CCCNC(=N)N)NC(=O)[C@H](CCCCN)NC(=O)[C@H](CCCNC(=N)N)NC(=O)[C@@H](NC(=O)[C@H](CCCCN)NC(=O)[C@H](CCCNC(=N)N)NC(=O)[C@@H](NC(=O)[C@@H](NC(=O)[C@@H](NC(=O)[C@H](CCCNC(=N)N)NC(=O)[C@H](CCCCN)NC(=O)[C@H](CCCNC(=N)N)NC(=O)[C@@H](NC(=O)[C@H](CCCCN)NC(=O)[C@H](CCCNC(=N)N)NC(=O)[C@@H](NC(C)=O)[C@@H](C)CC)[C@@H](C)CC)[C@@H](C)CC)[C@@H](C)CC)[C@@H](C)CC)[C@@H](C)CC)[C@@H](C)CC)C(N)=O` [MU 8] (Ac-IRKIRKRIIIRKIRKRII-NH2), the 50% inhibitory concentration (IC50) is > 30 µM.

Turning to `CC(=O)N[C@@H](CCC(N)=O)C(=O)N[C@@H](CCCNC(=N)N)C(=O)N[C@@H](CCCCN)C(=O)N[C@@H](CCC(N)=O)C(=O)N[C@@H](CCCNC(=N)N)C(=O)N[C@@H](CCCCN)C(=O)N[C@@H](CCCNC(=N)N)C(=O)N[C@@H](CCC(N)=O)C(=O)N[C@@H](CCC(N)=O)C(=O)N[C@@H](CCC(N)=O)C(=O)N[C@@H](CCCNC(=N)N)C(=O)N[C@@H](CCCCN)C(=O)N[C@@H](CCC(N)=O)C(=O)N[C@@H](CCCNC(=N)N)C(=O)N[C@@H](CCCCN)C(=O)N[C@@H](CCCNC(=N)N)C(=O)N[C@@H](CCC(N)=O)C(=O)N[C@@H](CCC(N)=O)C(N)=O` [MU 9] (Ac-QRKQRKRQQQRKQRKRQQ-NH2), the IC50 was > 30 µM. The same measure, in the same setting: in the case of `CC(=O)N[C@@H](CC(N)=O)C(=O)N[C@@H](CCCNC(=N)N)C(=O)N[C@@H](CCCCN)C(=O)N[C@@H](CC(N)=O)C(=O)N[C@@H](CCCNC(=N)N)C(=O)N[C@@H](CCCCN)C(=O)N[C@@H](CCCNC(=N)N)C(=O)N[C@@H](CC(N)=O)C(=O)N[C@@H](CC(N)=O)C(=O)N[C@@H](CC(N)=O)C(=O)N[C@@H](CCCNC(=N)N)C(=O)N[C@@H](CCCCN)C(=O)N[C@@H](CC(N)=O)C(=O)N[C@@H](CCCNC(=N)N)C(=O)N[C@@H](CCCCN)C(=O)N[C@@H](CCCNC(=N)N)C(=O)N[C@@H](CC(N)=O)C(=O)N[C@@H](CC(N)=O)C(N)=O` [MU 11] (Ac-NRKNRKRNNNRKNRKRNN-NH2) it was 27.5 µM. The same measure, in the same setting: the figure for `CC(=O)N[C@@H](CCCNC(=N)N)C(=O)N[C@@H](CCCNC(=N)N)C(=O)N[C@@H](CCCCN)C(=O)N[C@@H](CCCNC(=N)N)C(=O)N[C@@H](CCCNC(=N)N)C(=O)N[C@@H](CCCCN)C(=O)N[C@@H](CCCNC(=N)N)C(=O)N[C@@H](CCCNC(=N)N)C(=O)N[C@@H](CCCNC(=N)N)C(=O)N[C@@H](CCCNC(=N)N)C(=O)N[C@@H](CCCNC(=N)N)C(=O)N[C@@H](CCCCN)C(=O)N[C@@H](CCCNC(=N)N)C(=O)N[C@@H](CCCNC(=N)N)C(=O)N[C@@H](CCCCN)C(=O)N[C@@H](CCCNC(=N)N)C(=O)N[C@@H](CCCNC(=N)N)C(=O)N[C@@H](CCCNC(=N)N)C(N)=O` [MU 16] (Ac-RRKRRKRRRRRKRRKRRR-NH2) is 7.5 µM.

Staying with this experiment, now noted: Examples 2 and 3.
Regarding `CSCC[C@H](NC(=O)[C@H](CCC(=O)O)NC(=O)[C@H](CCC(=O)O)NC(=O)[C@H](CCSC)NC(=O)[C@H](CCCNC(=N)N)NC(=O)[C@H](C)NC(=O)[C@H](CCCNC(=N)N)NC(=O)[C@H](CC(C)C)NC(=O)[C@H](CCCNC(=N)N)NC(=O)[C@H](CCSC)NC(=O)[C@H](CCC(=O)O)NC(=O)[C@H](CCC(=O)O)NC(=O)[C@H](CCSC)NC(=O)[C@H](CCCNC(=N)N)NC(=O)[C@H](C)NC(=O)[C@H](CCCNC(=N)N)NC(=O)[C@H](CC(C)C)NC(=O)[C@H](CCCNC(=N)N)NC(C)=O)C(N)=O` [GIN 15] (Ac-RLRARMEEMRLRARMEEM-NH2), the “efficacy for reducing HSV1 infectivity (in words)” value was “no, or poor, efficacy”.

In the case of `CC(=O)N[C@@H](Cc1ccc(O)cc1)C(=O)N[C@@H](CCCNC(=N)N)C(=O)N[C@@H](CCCCN)C(=O)N[C@@H](Cc1ccc(O)cc1)C(=O)N[C@@H](CCCNC(=N)N)C(=O)N[C@@H](CCCCN)C(=O)N[C@@H](CCCNC(=N)N)C(=O)N[C@@H](Cc1ccc(O)cc1)C(=O)N[C@@H](Cc1ccc(O)cc1)C(=O)N[C@@H](Cc1ccc(O)cc1)C(=O)N[C@@H](CCCNC(=N)N)C(=O)N[C@@H](CCCCN)C(=O)N[C@@H](Cc1ccc(O)cc1)C(=O)N[C@@H](CCCNC(=N)N)C(=O)N[C@@H](CCCCN)C(=O)N[C@@H](CCCNC(=N)N)C(=O)N[C@@H](Cc1ccc(O)cc1)C(=O)N[C@@H](Cc1ccc(O)cc1)C(N)=O` [GIN 41] (Ac-YRKYRKRYYYRKYRKRYY-NH2), the “efficacy for reducing HSV1 infectivity (in words)” value was “also had efficacy”.

The same experiment, now with this note: HSV1, Vero cells, Table 5 (Example 2); read-out: Apparent IC50.
For the molecule `CC(=O)N[C@@H](CC(=O)O)C(=O)N[C@@H](Cc1c[nH]c2ccccc12)C(=O)N[C@@H](CC(C)C)C(=O)N[C@@H](CCCCN)C(=O)N[C@@H](C)C(=O)N[C@@H](Cc1ccccc1)C(=O)N[C@@H](Cc1ccc(O)cc1)C(=O)N[C@@H](CC(=O)O)C(=O)N[C@@H](CCCCN)C(=O)N[C@H](C(=O)N[C@@H](C)C(=O)N[C@@H](CCC(=O)O)C(=O)N[C@@H](CCCCN)C(=O)N[C@@H](CC(C)C)C(=O)N[C@@H](CCCCN)C(=O)N[C@@H](CCC(=O)O)C(=O)N[C@@H](C)C(=O)N[C@@H](Cc1ccccc1)C(N)=O)C(C)C` [GIN 22] (Ac-DWLKAFYDKVAEKLKEAF-NH2), the half-maximal inhibitory concentration (IC50) is 36 µM.

Staying with this experiment, now noted: HSV-1, Vero cells, Table 6 (Example 3); read-out: IC50.
As to `CC(=O)N[C@@H](CC(=O)O)C(=O)N[C@@H](Cc1c[nH]c2ccccc12)C(=O)N[C@@H](CC(C)C)C(=O)N[C@@H](CCCCN)C(=O)N[C@@H](C)C(=O)N[C@@H](Cc1ccccc1)C(=O)N[C@@H](Cc1ccc(O)cc1)C(=O)N[C@@H](CC(=O)O)C(=O)N[C@@H](CCCCN)C(=O)N[C@H](C(=O)N[C@@H](C)C(=O)N[C@@H](CCC(=O)O)C(=O)N[C@@H](CCCCN)C(=O)N[C@@H](CC(C)C)C(=O)N[C@@H](CCCCN)C(=O)N[C@@H](CCC(=O)O)C(=O)N[C@@H](C)C(=O)N[C@@H](Cc1ccccc1)C(N)=O)C(C)C` [GIN 22] (Ac-DWLKAFYDKVAEKLKEAF-NH2), the IC50 came to 36 µM.

One may read the IC50 as the concentration that gives 50% inhibition.
